Measured values taken from article PMC9610999, “Itraconazole-Induced Increases in Gilteritinib Exposure Are Mediated by CYP3A and OATP1B” (Molecules, 2022).
pIC50, pKi: −log10 of the molar value. Like-named read-outs stand apart in the source and are kept apart here.

Experiments:
human OATP1B1 (SLCO1B1) = target: T1, human OATP1B1 (SLCO1B1) (Homo sapiens, UniProt Q9Y6L6); assay: Transport inhibition assay: EβG uptake in OATP1B1 overexpressing HEK293 cells; format: cell-based
T1 construct: expressed in transfected cells; host or cells: HEK293
T1 sequence (Q9Y6L6 1-691): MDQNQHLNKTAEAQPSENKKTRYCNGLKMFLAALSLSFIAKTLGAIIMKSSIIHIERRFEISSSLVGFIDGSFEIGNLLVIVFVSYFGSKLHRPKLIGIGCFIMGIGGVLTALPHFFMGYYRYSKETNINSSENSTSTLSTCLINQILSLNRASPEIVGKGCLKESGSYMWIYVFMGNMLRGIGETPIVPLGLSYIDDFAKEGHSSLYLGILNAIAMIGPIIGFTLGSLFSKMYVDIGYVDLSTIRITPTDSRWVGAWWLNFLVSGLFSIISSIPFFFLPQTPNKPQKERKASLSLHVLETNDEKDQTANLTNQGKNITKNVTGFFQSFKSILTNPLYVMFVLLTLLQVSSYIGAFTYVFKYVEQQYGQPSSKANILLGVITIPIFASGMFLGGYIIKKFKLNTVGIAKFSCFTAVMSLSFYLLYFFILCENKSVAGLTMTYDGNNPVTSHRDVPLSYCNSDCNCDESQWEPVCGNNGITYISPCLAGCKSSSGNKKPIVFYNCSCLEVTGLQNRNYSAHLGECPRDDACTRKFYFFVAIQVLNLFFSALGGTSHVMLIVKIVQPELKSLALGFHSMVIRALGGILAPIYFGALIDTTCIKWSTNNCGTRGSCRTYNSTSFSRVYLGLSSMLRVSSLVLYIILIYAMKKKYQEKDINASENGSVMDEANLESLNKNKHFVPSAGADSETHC
Protocol: Human embryonic kidney (HEK293) cells stably transfected with human OATP1B1 (SLCO1B1) cDNA, or an empty control vector were established and cultured as previously described. Cells were maintained in DMEM supplemented with 10% FBS, 50 µg/mL hygromycin B, 15 µg/mL blasticidin, and maintained in a humidified incubator at 37 °C with 5% CO2. Prior to plating, 24-well tissue culture plates (Thermo Fisher Scientific) were coated with poly-d-lysine. Seeding media was prepared using phenol red-free DMEM with 10% FBS with no selection agents. To the seeding media, […] of doxycycline was added to induce expression of OATP1B1.
OATP1B1 overexpressing cells and vector control cells were plated in 24-well tissue culture plates at a volume of 0.5 mL (containing 2 × 10^6 cells/mL) per well. Plates were returned to an incubator at 37 °C and transport assays were conducted 24 h later. Transport activity was measured using EβG, a prototypical substrate of OATP1B1. Experiments were conducted using phenol red- and serum-free DMEM. Intracellular levels of total radioactivity originating from EβG were assessed by liquid scintillation counting. The resulting counts were normalized to total protein levels as determined by a Pierce protein assay. The influence of gilteritinib, itraconazole, keto-itraconazole, or hydroxy-itraconazole on OATP1B1-mediated transport was assessed following a 15 min pre-incubation at various concentrations of test inhibitors followed by co-incubation of test inhibitors with EβG. Inhibition of transport activity by gilteritinib was determined by comparing the accumulation of EβG in the presence of gilteritinib, itraconazole, keto-itraconazole, or hydroxy-itraconazole to that of EβG in the presence of only the control vehicle, DMSO. The final concentration of DMSO in media was less than 0.2% in all in vitro experiments.

[1] = Plasma pharmacokinetics of oral gilteritinib in mice, with or without itraconazole pretreatment; format: in vivo; conditions: for Cmax / AUC(0-t): male, mouse, plasma, po, 10 mg/kg, gilteritinib 10 mg/kg p.o., mean (SD); for AUC(0-t): read-out: Gilteritinib AUC0–24h
Excerpt: Male and female CYP3A(−/−) mice and age- and sex-matched wild-type mice on an FVB/NTac (CYP3A(+/+)) background were bred in-house. Male OATP1B2(−/−) mice and age and sex-matched wild-type mice on a DBA1/lacJ (OATP1B2(+/+)) background were bred in-house. All mice were aged 8–16 weeks and weighed 18–30 g. Littermates of the same sex were housed in groups of five or fewer in a temperature- and light-controlled environment (12-h light/dark cycles) in cages lined with absorbent bedding. Mice were given free access to standard food and water. All breeding and experimental procedures were conducted with the approval of the University Laboratory Animal Resources Animal Care and Use Committee at The Ohio State University under protocol number 201500000101-R2.
For in vivo pharmacokinetic studies, mice were randomly divided into experimental groups of equal size. Gilteritinib powder was dissolved in 0.5% methylcellulose solution in distilled sterile water at a concentration of 2 mg/mL and was administered via oral gavage at a body weight normalized dose of 10 mg/kg. The dose of gilteritinib was chosen based on previous preclinical characterization of gilteritinib pharmacokinetics. Itraconazole powder was dissolved in a solvent comprised of 5% DMSO, 70% PEG300, and 25% distilled sterile water and administered orally at a dose of 100 mg/kg. The dose of itraconazole was based on previous work studying preclinical DDI with itraconazole. For combination treatments, itraconazole was always given 30 min prior to gilteritinib.
Pharmacokinetic studies were performed in accordance with a repeat sampling strategy described previously. After a single dose of gilteritinib, 20–40 μL of whole blood samples were collected from each mouse at time points ranging from 0.5–24 h after dosing. Samples procured during the first three time points were collected from the submaxillary vein using a sterile, disposable 4 mm or 5 mm Goldenrod animal blood lancet and collected into a glass micro-hematocrit heparinized capillary tube. For samples obtained at the fourth and fifth time points, the mice were sedated using 2% isoflurane and whole blood was obtained via the retro-orbital venous plexus. At the final time point, mice were euthanized via carbon dioxide inhalation, whole blood was collected by cardiac puncture with a needle and 1-mL syringe and transferred to a 1.5-mL heparinized tube. All samples were centrifuged at 13,000× g for 5 min and the plasma supernatant was transferred to a 0.5-mL tube, snap-frozen on dry ice, and stored at −80 °C until the day of analysis.
Pharmacokinetic parameters were estimated using non-compartmental analyses using Phoenix WinNonlin version 8.1 (Certara, Princeton, NJ, USA). Estimated measures of exposure included the peak plasma concentration (Cmax) and the area under the plasma concentration–time curve (AUC).

[2] = CYP3A(−/−) on FVB/NTac background, CYP3A(−/−) male mice, itraconazole 100 mg/kg 30 min before
[3] = CYP3A(−/−) on FVB/NTac background, CYP3A(−/−) male mice, no co-treatment
[4] = DBA/1J (wild-type), Wild-type DBA/1J male mice, no co-treatment
[5] = FVB (wild-type), Wild-type FVB male mice, itraconazole 100 mg/kg 30 min before
[6] = FVB (wild-type), Wild-type FVB male mice, no co-treatment
[7] = OATP1B2(−/−) on DBA1/lacJ background, OATP1B2(−/−) male mice, itraconazole 100 mg/kg 30 min before
[8] = OATP1B2(−/−) on DBA1/lacJ background, OATP1B2(−/−) male mice, no co-treatment, experiment compared with itraconazole co-treatment
[9] = OATP1B2(−/−) on DBA1/lacJ background, OATP1B2(−/−) male mice, no co-treatment, experiment compared with wild-type DBA/1J

CCc1nc(C(N)=O)c(Nc2ccc(N3CCC(N4CCN(C)CC4)CC3)c(OC)c2)nc1NC1CCOCC1 [Gilteritinib]
Mechanism of inhibition of OATP1B transport of EβG (human OATP1B1 (SLCO1B1); Dixon plot): noncompetitively inhibits | pIC50 (human OATP1B1 (SLCO1B1); OATP1B1 overexpressing HEK293 cells vs vector control, radiolabeled EβG, 15 min pre-incubation, read-out: IC50, inhibition of OATP1B1-mediated cellular accumulation of EβG): 5.65 | pKi (human OATP1B1 (SLCO1B1); gilteritinib 0.3–8.3 µM, EβG 0.2, 2, 20 µM, estimated, read-out: Ki (inhibition constant), EβG uptake by OATP1B1, Dixon plot): 5.80 | Gilteritinib AUC Fold Increase ([1]; CYP3A(−/−) mice, no co-treatment, vs. WT): 1.3 (vs. WT) fold | Gilteritinib AUC Fold Increase ([1]; CYP3A(−/−) mice, no co-treatment, vs. WT, listed as gilteritinib): 1.3 fold | Gilteritinib AUC Fold Increase ([1]; CYP3A(−/−) mice, with itraconazole 100 mg/kg vs. Vehicle): 0.97 (vs. Vehicle) fold | Gilteritinib AUC Fold Increase ([1]; OATP1B2(−/−) mice, no co-treatment, vs. WT): 1.4 (vs. WT) fold | Gilteritinib AUC Fold Increase ([1]; OATP1B2(−/−) mice, no co-treatment, vs. WT, listed as gilteritinib): 1.4 fold | Gilteritinib AUC Fold Increase ([1]; OATP1B2(−/−) mice, with itraconazole 100 mg/kg vs. Vehicle): 0.84 (vs. Vehicle) fold | Gilteritinib AUC Fold Increase ([1]; Wild-type FVB mice, with itraconazole 100 mg/kg vs. Vehicle): 2.5 (vs. Vehicle) fold | Gilteritinib AUC Fold Increase ([1]; Wild-type FVB mice, with itraconazole 100 mg/kg vs. Vehicle, listed as gilteritinib): about 2.5 fold | Cmax [1, 2]: 430 ng/mL | AUC(0-t) [1, 2]: 5840 ng·h/mL | Cmax [1, 3]: 380 ng/mL | AUC(0-t) [1, 3]: 5990 ng·h/mL | Cmax [1, 4]: 260 ng/mL | AUC(0-t) [1, 4]: 4550 ng·h/mL | Cmax [1, 5]: 960 ng/mL | AUC(0-t) [1, 5]: 11500 ng·h/mL | Cmax [1, 6]: 310 ng/mL | AUC(0-t) [1, 6]: 4650 ng·h/mL | Cmax [1, 7]: 1350 ng/mL | AUC(0-t) [1, 7]: 15000 ng·h/mL | Cmax [1, 8]: 1430 ng/mL | AUC(0-t) [1, 8]: 17800 ng·h/mL | Cmax [1, 9]: 390 ng/mL | AUC(0-t) [1, 9]: 6160 ng·h/mL
